From patent US5506256A, “Proline derivatives possessing prolyl endopeptidase-inhibitory activity” (Yoshitomi Pharmaceutical Industries, Ltd., priority 1990, dated 1996) come the findings set out here.

Each structure is given as a SMILES string. pIC50: −log10 of the molar value.

The target of assay [1] is T1, prolyl endopeptidase (Rattus norvegicus, UniProt O70196).
T1 construct: prolyl endopeptidase extracted from rat brain; from tissue; host or cells: rat brain
Nature of the assay: Prolyl endopeptidase-inhibitory activity. Type of assay: biochemical. The settings on record: for inhibition at 0.1 µM / inhibition at 1 µM: read-out: inhibition rate, prolyl endopeptidase; for pIC50: prolyl endopeptidase extracted from rat brain, pH 7.0, 30° C., read-out: IC50. As for the experimental part:
Prolyl endopeptidase-inhibitory activity
A mixture of a 0.1M potassium sodium phosphate buffer (pH 7.0) (2675 μl), a solution of the compounds of the present invention in a 0.1M potassium sodium phosphate buffer (pH 7.0) (100 μl) and a solution of prolyl endopeptidase extracted from rat brain in a 25 mM sodium phosphate buffer (100 μl) [123 unit/1, pH 6.8, containing 1 mM dithiothreitol and 0.5 mM EDTA, prepared by the method described in J. Neurochem., 35, 527 (1980)]was preincubated at 30° C. for 30 minutes. Thereto was added a 0.2 mM solution of 7-(N-succinyl-glycyl-prolyl)-4-methylcoumarinamide (Peptide Institute, INC.) in a 0.1M potassium sodium phosphate buffer (pH 7.0) (125 μl), and the mixture was incubated at 30° C. for 1 hour. The reaction mixture was immersed in ice (0° C.) to terminate the reaction, and the fluorescence (a1) was determined ten minutes later (excitation at 370 nm and emission at 440 nm). Concurrently, there were conducted the experiment wherein, in the above system, the prolyl endopeptidase solution was substituted for a 25 mM sodium phosphate buffer (pH 6.8, containing 1 mM dithiothreitol and 0.5 mM EDTA) and the experiment wherein the solution of the compounds of the present invention was substituted for a 0.1M potassium sodium phosphate buffer (pH 7.0). Each fluorescence (a2 and a3) was determined respectively [See Tanpakushitsu Kakusan Koso, 29, 127 (1984)]. The prolyl endopeptidase-inhibition rate was calculated by the following formula, and IC50, a concentration of a compound producing 50% inhibition, was estimated by semilogarithmic graph paper. [formula] […]

For assay [2], the target named is T2, chymotrypsin (Bos taurus, UniProt P00766).
T2 construct: purchased Sigma; host or cells: bovine pancreas
Nature of the assay: Determination of chymotrypsin-inhibitory activity. Type of assay: biochemical, bovine. The settings on record: read-out: inhibition rate, chymotrypsin. As for the experimental part:
(§1) The methods for the measurement of inhibitory activities against various proteases and the method for calculating the inhibition rate are as follows.
Determination of chymotrypsin-inhibitory activity
Similarly, by following the procedure mentioned above, but employing a 50 mM Tris-HCl buffer (pH 8.0) as a buffer for measurement, a 0.2 μM solution of chymotrypsin (derived from bovine pancreas, Sigma) in the same buffer as an enzyme solution and a […] solution of 7-(N-succinyl-leucyl-leucyl-valyl-tyrosyl)-4-methylcoumarinamide (Peptide Institute, Inc.) in the same buffer as a substrate solution, each fluorescence (c1, c2 and c3) was determined, respectively.
(§2) Using the fluorescence x1, x2 and x3 measured in the abovementioned manner, the inhibitory rate against various proteases was calculated by the following formula where x stands for b, c, d, e or f: [formula]

For assay [3], the target named is T3, cathepsin B (Bos taurus, UniProt P07688).
T3 construct: purchased Sigma; host or cells: bovine spleen
Nature of the assay: Determination of cathepsin B-inhibitory activity. Type of assay: biochemical, bovine. The settings on record: read-out: inhibition rate, cathepsin B. As for the experimental part:
as §1
Determination of cathepsin B-inhibitory activity
Similarly, by following the procedure mentioned above, but employing a 100 mM sodium phosphate buffer (pH 6.0; containing 1.33 mM EDTA Na2) as a buffer for measurement, a 0.02 μM solution of cathepsin B (derived from bovine spleen, Sigma) in the same buffer as an enzyme solution and a 200 μM solution of 7-(N-benzyloxycarbonyl-phenylaranyl-arginyl)-4-methylcoumarinamide (Peptide Institute, Inc.) in the same buffer as a substrate solution, each fluorescence (f1, f2 and f3) was determined, respectively.
as §2

The subject of assay [4] is leucine aminopeptidase. Nature of the assay: Determination of leucine aminopeptidase-inhibitory activity. Type of assay: biochemical, swine. Details: unit not given here. As to the method: as §1
Determination of leucine aminopeptidase-inhibitory activity
Similarly, by following the procedure mentioned above, but employing a 50 mM Tris-HCl buffer (pH 8.0) as a buffer for measurement, a […] solution of leucine aminopeptidase (derived from swine kidney, Sigma) in the same buffer as an enzyme solution and a 200 μM solution of 7-leucyl-4-methyl-coumarinamide (Peptide Institute, Inc.) in the same buffer as a substrate solution, each fluorescence (d1, d2 and d3) was determined, respectively.
as §2

For assay [5], the target named is T4, elastase (Sus scrofa, UniProt P00772).
T4 construct: purchased Sigma; host or cells: swine pancreas
T4 sequence (P00772 27-266): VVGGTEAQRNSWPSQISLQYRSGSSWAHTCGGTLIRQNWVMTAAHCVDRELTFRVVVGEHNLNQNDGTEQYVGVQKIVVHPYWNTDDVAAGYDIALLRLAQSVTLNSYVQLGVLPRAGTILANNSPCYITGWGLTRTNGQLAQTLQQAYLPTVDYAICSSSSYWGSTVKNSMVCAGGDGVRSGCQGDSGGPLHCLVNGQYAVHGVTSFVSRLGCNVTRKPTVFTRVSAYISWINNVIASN
Nature of the assay: Determination of elastase-inhibitory activity. Type of assay: biochemical, swine. The conditions noted are these: read-out: inhibition rate, elastase. As for the experimental part:
as §1
Determination of elastase-inhibitory activity
Similarly, by following the procedure mentioned above, but employing a 1 mM Tris-HCl buffer (pH 8.5) as a buffer for measurement, a 0.2 μM solution of elastase (derived from swine pancreas, Sigma) in the same buffer as an enzyme solution and a 200 μM solution of 7-(N-succinyl-aranyl-prolyl-aranyl)-4-methylcoumarinamide (Peptide Institute, Inc.) in the same buffer as a substrate solution, each fluorescence (e1, e2 and e3) was determined, respectively.
as §2

The target in assay [6] is T5, trypsin (Bos taurus, UniProt P00760).
T5 construct: purchased Sigma; host or cells: bovine pancreas
T5 sequence (P00760 24-246): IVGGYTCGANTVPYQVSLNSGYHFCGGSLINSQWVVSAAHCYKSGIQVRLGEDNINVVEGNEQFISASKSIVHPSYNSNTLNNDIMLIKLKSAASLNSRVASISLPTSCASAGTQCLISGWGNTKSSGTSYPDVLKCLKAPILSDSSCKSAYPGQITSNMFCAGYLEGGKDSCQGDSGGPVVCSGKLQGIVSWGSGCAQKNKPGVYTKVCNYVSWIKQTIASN
Nature of the assay: Determination of trypsin-inhibitory activity. Type of assay: biochemical, bovine. The conditions noted are these: read-out: inhibition rate, trypsin. As to the method: as §1
Determination of trypsin-inhibitory activity
In the present invention, a 50 mM Tris-HCl buffer (pH 8.0) was employed as a buffer for measurement.
To a mixture of the above-mentioned buffer (850 μl), a solution of the compounds of the present invention in the same buffer (50 μl) and a 0.02 μM solution of trypsin (derived from bovine pancreas, Sigma) in the same buffer (50 μl) was added a 200 μM solution of 7-(prolyl-phenylaranyl-arginyl)-4-methylcoumarinamide (Peptide Institute, Inc.) in the same buffer (50 μl),and the mixture was incubated at 30° C. for 1 hour. The reaction mixture was immersed in ice (0° C.) to terminate the reaction, and the fluorescence (b1) was determined 1 hour later (excitation at 370 nm and emission at 440 nm). Concurrently, there were conducted the experiment wherein, in the system above, the trypsin solution was substituted for a buffer alone, and the experiment wherein the solution of the compounds of the present invention was substituted for a buffer above. Each fluorescence (b2 and b3) was determined respectively.
as §2

T1 sequence (O70196 whole entry): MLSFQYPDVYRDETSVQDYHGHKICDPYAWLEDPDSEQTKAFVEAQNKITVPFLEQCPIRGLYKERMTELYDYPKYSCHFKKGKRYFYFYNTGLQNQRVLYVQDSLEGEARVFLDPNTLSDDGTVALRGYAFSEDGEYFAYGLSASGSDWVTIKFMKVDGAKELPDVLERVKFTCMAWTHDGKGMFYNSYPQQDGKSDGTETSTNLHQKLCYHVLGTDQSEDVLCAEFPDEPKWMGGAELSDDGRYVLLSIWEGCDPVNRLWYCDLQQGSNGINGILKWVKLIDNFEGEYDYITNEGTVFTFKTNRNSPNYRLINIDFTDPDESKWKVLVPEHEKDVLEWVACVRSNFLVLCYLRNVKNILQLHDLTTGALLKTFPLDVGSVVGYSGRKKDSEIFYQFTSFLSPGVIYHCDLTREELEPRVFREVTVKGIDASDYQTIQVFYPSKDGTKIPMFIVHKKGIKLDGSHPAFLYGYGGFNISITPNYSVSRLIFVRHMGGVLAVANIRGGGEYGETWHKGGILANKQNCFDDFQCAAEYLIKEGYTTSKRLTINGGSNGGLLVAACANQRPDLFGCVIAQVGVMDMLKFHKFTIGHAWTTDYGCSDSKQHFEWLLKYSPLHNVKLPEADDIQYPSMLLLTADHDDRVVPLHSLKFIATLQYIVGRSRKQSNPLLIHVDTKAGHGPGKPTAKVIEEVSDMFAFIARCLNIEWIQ

As usually defined, the inhibition is the percentage by which the read-out fell short of the control. One may read the pIC50 as the negative decadic logarithm of the IC50, by convention in mol/L. For the compound `O=C(C[S@@+]([O-])c1ccccc1)[C@@H]1CCCN1C(=O)[C@@H]1CCCN1C(=O)OCc1ccccc1` [Compound 10, (2S)-1-(N-Benzyloxycarbonyl-L-prolyl)-2-{[(R)-phenylsulfinyl]acetyl}pyrrolidine], the inhibition at 0.1 µM was determined as 97% in assay [1]; 0% in assay [2]; 0% in assay [3]; 0% in assay [5]; 0% in assay [6]. In addition, the pIC50 in assay [1] is 7.10. Moreover, the “inhibition rate, leucine aminopeptidase” value in assay [4] (0.1 μM) is on record as 0.
Consider `COc1ccc([S@@+]([O-])CC(=O)[C@@H]2CCCN2C(=O)[C@@H]2CCCN2C(=O)OCc2ccccc2)cc1` [Compound 11, (2S)-1-(N-Benzyloxycarbonyl-L-prolyl)-2-{[(S)-4-methoxy-phenylsulfinyl]acetyl}pyrrolidine], for which the inhibition at 0.1 µM in assay [1] amounted to 90%; in assay [2], 0%; in assay [3], 0%; in assay [5], 0%; in assay [6], 0%. The pIC50 in assay [1] is 8.82. For the same compound, the “inhibition rate, leucine aminopeptidase” value in assay [4] (0.1 μM) is 0.
Consider `COc1ccc([S@+]([O-])CC(=O)[C@@H]2CCCN2C(=O)[C@@H]2CCCN2C(=O)OCc2ccccc2)cc1` [Compound 12, (2S)-1-(N-Benzyloxycarbonyl-L-prolyl)-2-{[(R)-4-methoxy-phenylsulfinyl]acetyl}pyrrolidine], for which the inhibition at 1 µM is 92% in assay [1]; 0% in assay [2]; 0% in assay [3]; 0% in assay [5]; 0% in assay [6]. For the same compound, the pIC50 in assay [1] is 7.70. Besides, in assay [4] (1 μM), the “inhibition rate, leucine aminopeptidase” value stood at 0.
Turning to `Cc1ccc([S@@+]([O-])CC(=O)[C@@H]2CCCN2C(=O)[C@@H]2CCCN2C(=O)OCc2ccccc2)cc1` [Compound 13, (2S)-1-(N-Benzyloxycarbonyl-L-prolyl)-2-{[(S)-p-tolyl-sulfinyl]acetyl}pyrrolidine], the inhibition at 0.1 µM was found to be 98% in assay [1]; 0% in assay [2]; 0% in assay [3]; 0% in assay [5]; 0% in assay [6]. The pIC50 in assay [1] is 9.52. Moreover, the “inhibition rate, leucine aminopeptidase” value in assay [4] (0.1 μM) stood at 0.
Regarding `Cc1ccc([S@+]([O-])CC(=O)[C@@H]2CCCN2C(=O)[C@@H]2CCCN2C(=O)OCc2ccccc2)cc1` [Compound 14], the inhibition at 0.1 µM in assay [1] was found to be 97%; in assay [2] it was 0%; in assay [3] it was 0%; in assay [5] it was 0%; in assay [6] it was 0%. In addition, in assay [1], the pIC50 was 8.82. Further, the “inhibition rate, leucine aminopeptidase” value in assay [4] (0.1 μM) is listed as 0.
Turning to `COc1ccc([S@@+]([O-])CC(=O)[C@@H]2CCCN2C(=O)[C@@H]2CCCN2C(=O)CCc2ccccc2)cc1` [Compound 15], the inhibition at 0.1 µM in assay [1] was 98%; in assay [2] it was 0%; in assay [3], 0%; in assay [5], 0%; in assay [6] it was 0%. Moreover, the pIC50 in assay [1] is 8.60. Also, the “inhibition rate, leucine aminopeptidase” value in assay [4] (0.1 μM) is 0.
In the case of `Cc1ccc([S@@+]([O-])CC(=O)[C@@H]2CCCN2C(=O)[C@@H]2CCCN2C(=O)CCc2ccccc2)cc1` [Compound 16, (2S)-1-[N-(3-Phenylpropionyl)-L-prolyl]-2-{[(S)-p-tolylsulfinyl]acetyl}pyrrolidine], the inhibition at 0.1 µM turned out to be 99% in assay [1]; 0% in assay [2]; 0% in assay [3]; 0% in assay [5]; 0% in assay [6]. Moreover, the pIC50 in assay [1] was 8.82. Also, in assay [4] (0.1 μM), the “inhibition rate, leucine aminopeptidase” value was determined as 0.
With `O=C(C[S@+]([O-])c1ccccc1)[C@@H]1CCCN1C(=O)[C@@H]1CCCN1C(=O)CCc1ccccc1` [Compound 17, (2S)-1-[N-(3-Phenylpropionyl)-L-prolyl]-2-{[(S)-phenylsulfinyl]acetyl}pyrrolidine], the inhibition at 0.1 µM in assay [1] worked out at 99%; in assay [2] it was 0%; in assay [3] it was 0%; in assay [5], 0%; in assay [6], 0%. Further, the pIC50 in assay [1] was 9.30. The “inhibition rate, leucine aminopeptidase” value in assay [4] (0.1 μM) is recorded as 0.
In the case of `COc1ccc(OCC(=O)[C@@H]2CCCN2C(=O)[C@@H]2CCCN2C(=O)OCc2ccccc2)cc1` [Compound 18, (2S)-1-(N-Benzyloxycarbonyl-L-prolyl)-2-[(4-methoxyphenoxy)-acetyl]pyrrolidine], the inhibition at 0.1 µM is 93% in assay [1]; 0% in assay [2]; 0% in assay [3]; 0% in assay [5]; 0% in assay [6]. Also, the pIC50 in assay [1] was 8.82. For the same compound, in assay [4] (0.1 μM), the “inhibition rate, leucine aminopeptidase” value is listed as 0.
For `O=C(COc1ccccc1)[C@@H]1CCCN1C(=O)[C@@H]1CCCN1C(=O)CCc1ccccc1` [Compound 19, (2S)-2-(Phenoxyacetyl)-1-[N-(3-phenylpropionyl)-L-prolyl]-pyrrolidine], the inhibition at 1 µM in assay [1] came out at 98%; in assay [2], 0%; in assay [3], 0%; in assay [5], 0%; in assay [6] it was 0%. Moreover, the pIC50 in assay [1] was 7.82. Further, the “inhibition rate, leucine aminopeptidase” value in assay [4] (1 μM) came out at 0.
